Measurements reported in US9067945B2, “Selective phosphodiesterase 9A inhibitors as medicaments for improving cognitive processes” (Boehringer Ingehleim International GmbH, priority 2002, dated 2015).
pIC50: −log10 of the molar value. “Also recorded” adds a separate entry of the source.

Assays:
Human PDE9A = Human PDE9A (Homo sapiens (Human), UniProt O76083); settings: concentrations of up to 100 μM; cited from earlier work
PDE10A = PDE10A (Homo sapiens (Human), UniProt Q9Y233); assay: PDE inhibition, recombinant PDE10A (SPA); type: biochemical; settings: Isoenzyme PDE10A
Excerpt: (§1) Recombinant PDE1C (GenBank/EMBL Accession Number: NM_005020, Loughney et al. J. Biol. Chem. 1996 271, 796-806), PDE2A (GenBank/EMBL Accession Number: NM_002599, Rosman et al. Gene 1997 191, 89-95), PDE3B (GenBank/EMBL Accession Number: NM_000922, Miki et al. Genomics 1996, 36, 476-485), PDE4B (GenBank/EMBL Accession Number: NM_002600, Obernolte et al. Gene. 1993, 129, 239-247), PDE5A (GenBank/EMBL Accession Number: NM_001083, Loughney et al. Gene 1998, 216, 139-147), PDE7B (GenBank/EMBL Accession Number: NM_018945, Hetman et al. Proc. Natl. Acad. Sci. U.S.A. 2000, 97, 472-476), PDE8A (GenBank/EMBL Accession Number: AF—056490, Fisher et al. Biochem. Biophys. Res. Commun. […]
(§2) The test substances are dissolved in 100% DMSO and serially diluted to determine their in vitro effect on PDE 9A. […] The plates are then measured for 30 s per well in a Microbeta scintillation counter (Wallac Inc., Atlanta, Ga.). IC50 values are determined from the graphical plot of the substance concentration versus the percentage inhibition.
(§3) The in vitro effect of test substances on recombinant PDE3B, PDE4B, PDE7B, PDE8A, PDE10A and PDE11A is determined in accordance with the assay protocol described above for PDE9A with the following adaptations: [5′,8-^3H] adenosine 3′,5′-cyclic phosphate (1 μCi/μL; Amersham Pharmacia Biotech., Piscataway, N.J.) is used as substrate. […]

[1] = tested on: primary rat (E18) cortex cultures, intracellular cGMP; assay: Increasing the intracellular neuronal cGMP concentration in cell cultures; type: cell-based; settings: primary rat cortical neurons, incubation 20 min, FIG. 1
Protocol: Rat embryos (embryonic day E17-E19) were decapitated, and the heads were transferred into dissection dishes filled with dissection medium (DMEM, penicillin/streptomycin; both from Gibco). The scalp and the roof of the skull were removed, and the exposed brains were transferred into another Petri dish with dissection medium. Using a binocular microscope and two forceps, the cerebrum (cortex) was isolated and cooled to 4° C. with ice. This dissection and the isolation of the cortical neurons were then carried out in accordance with a standard protocol using the Papain kit (Worthington Biochemical Corporation, Lakewood, N.J. 08701, USA) (Huettner et al. J. Neurosci. 1986, 6, 3044-3060). The mechanically isolated cortical neurons were cultivated at 150,000 cells/well in 200 μl of neurobasal medium/well (neurobasal; B27 supplement; 2 mM L-glutamine; in the presence of penicillin/streptomycin; all agents from Gibco) in 96-well plates (pretreated with poly-D-lysine/100 μg/ml for 30 min) under standard conditions (37° C., 5% CO2) for 7 days. After 7 days, the medium was removed and the cells were washed with HBSS buffer (Hank's balanced salt solution, Gibco/BRL). […] Subsequently, the cells were lyzed in 200 μl of lysis buffer (cGMP kit code RPN 226; from Amersham Pharmacia Biotech.), and the cGMP concentration was measured as stated by the manufacturer. […]

PDE3B = PDE3B (Homo sapiens (Human), UniProt Q13370); assay: PDE inhibition, recombinant PDE3B (SPA); type: biochemical; settings: Isoenzyme PDE3B
Excerpt: as §1, §2, §3

[2] = tested on: rat hippocampus slices, fEPSP after weak tetanus; assay: Long-term potentiation in hippocampus slices; settings: 10 μM, flushed in 10 minutes before to 30 minutes after weak tetanus, vs 0.01% DMSO control, FIG. 2
PDE5A = PDE5A (Homo sapiens (Human), UniProt O76074); assay: PDE inhibition, recombinant PDE5A (SPA); type: biochemical; settings: Isoenzyme PDE5A
Excerpt: as §1, §2, §3

[3] = tested on: rats, learning and memory; assay: Social recognition test; type: in vivo, rat; settings: intraperitoneal 0.1-3.0 mg/kg directly after trial 1, retention time 24 hours, FIG. 3
Protocol: Adult rats housed in groups were placed singly in test cages 30 min before the start of the test. Four minutes before the start of the test, the test animal was put in an observation box. After this adaptation time, a juvenile animal was put in with the test animal and the absolute time for which the adult animal inspected the young one was measured for 2 min (trial 1). All behaviors clearly directed at the young animal were measured, i.e. anogenital inspection, pursuit and grooming, during which the old animal was no further than 1 cm from the young animal. The juvenile was then removed, and the adult was treated with Example 2 or vehicle and subsequently returned to its own cage. The test was repeated after a retention time of 24 hours (trial 2). A diminished social interaction time compared with trial 1 would indicate that the adult rat remembers the young animal.
The adult animals received intraperitoneal injections directly following trial 1 either with vehicle (10% ethanol, 20% Solutol, 70% physiological saline) or 0.1 mg/kg, 0.3 mg/kg, 1.0 mg/kg or 3.0 mg/kg of Example 2 dissolved in 10% ethanol, 20% Solutol, 70% physiological saline. […] They had consequently forgotten that they had already had contact with the young animal.

PDE2A = PDE2A (Homo sapiens (Human), UniProt O00408); assay: PDE inhibition, recombinant PDE2A (SPA); type: biochemical; settings: Isoenzyme PDE2A
Excerpt: as §1, §2, §3

PDE4B = PDE4B (Homo sapiens (Human), UniProt Q07343); assay: PDE inhibition, recombinant PDE4B (SPA); type: biochemical; settings: Isoenzyme PDE4B
PDE8A = PDE8A (Homo sapiens, UniProt O60658); assay: PDE inhibition, recombinant PDE8A (SPA); type: biochemical; settings: Isoenzyme PDE8A
PDE7B = PDE7B (Homo sapiens (Human), UniProt Q9NP56); assay: PDE inhibition, recombinant PDE7B (SPA); type: biochemical; settings: Isoenzyme PDE7B
Excerpt: as §1, §2, §3

PDE11 = PDE11 (Homo sapiens (Human), UniProt Q9HCR9); assay: PDE inhibition, recombinant PDE11A (SPA); type: biochemical; settings: Isoenzyme PDE11, human
Excerpt: as §1, §2, §3

Murine PDE9A = Murine PDE9A (Mus musculus (Mouse), UniProt O70628); settings: concentrations below 200 μM; cited from earlier work

Sequence of Human PDE9A (O76083 whole entry): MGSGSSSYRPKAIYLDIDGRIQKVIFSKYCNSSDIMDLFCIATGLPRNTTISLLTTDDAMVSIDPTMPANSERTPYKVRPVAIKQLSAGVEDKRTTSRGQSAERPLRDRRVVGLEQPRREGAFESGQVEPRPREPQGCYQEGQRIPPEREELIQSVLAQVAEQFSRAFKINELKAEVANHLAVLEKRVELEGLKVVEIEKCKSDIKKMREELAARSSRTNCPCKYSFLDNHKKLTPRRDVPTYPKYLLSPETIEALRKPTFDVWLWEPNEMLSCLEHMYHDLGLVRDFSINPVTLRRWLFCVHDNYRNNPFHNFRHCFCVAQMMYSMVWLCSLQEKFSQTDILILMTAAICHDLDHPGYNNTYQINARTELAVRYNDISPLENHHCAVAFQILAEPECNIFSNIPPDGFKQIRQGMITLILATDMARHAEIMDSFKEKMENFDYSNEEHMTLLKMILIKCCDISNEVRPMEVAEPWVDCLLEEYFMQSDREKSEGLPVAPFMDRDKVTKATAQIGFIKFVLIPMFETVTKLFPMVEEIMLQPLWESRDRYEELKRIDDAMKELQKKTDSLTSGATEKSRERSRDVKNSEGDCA
Sequence of PDE3B (Q13370 whole entry): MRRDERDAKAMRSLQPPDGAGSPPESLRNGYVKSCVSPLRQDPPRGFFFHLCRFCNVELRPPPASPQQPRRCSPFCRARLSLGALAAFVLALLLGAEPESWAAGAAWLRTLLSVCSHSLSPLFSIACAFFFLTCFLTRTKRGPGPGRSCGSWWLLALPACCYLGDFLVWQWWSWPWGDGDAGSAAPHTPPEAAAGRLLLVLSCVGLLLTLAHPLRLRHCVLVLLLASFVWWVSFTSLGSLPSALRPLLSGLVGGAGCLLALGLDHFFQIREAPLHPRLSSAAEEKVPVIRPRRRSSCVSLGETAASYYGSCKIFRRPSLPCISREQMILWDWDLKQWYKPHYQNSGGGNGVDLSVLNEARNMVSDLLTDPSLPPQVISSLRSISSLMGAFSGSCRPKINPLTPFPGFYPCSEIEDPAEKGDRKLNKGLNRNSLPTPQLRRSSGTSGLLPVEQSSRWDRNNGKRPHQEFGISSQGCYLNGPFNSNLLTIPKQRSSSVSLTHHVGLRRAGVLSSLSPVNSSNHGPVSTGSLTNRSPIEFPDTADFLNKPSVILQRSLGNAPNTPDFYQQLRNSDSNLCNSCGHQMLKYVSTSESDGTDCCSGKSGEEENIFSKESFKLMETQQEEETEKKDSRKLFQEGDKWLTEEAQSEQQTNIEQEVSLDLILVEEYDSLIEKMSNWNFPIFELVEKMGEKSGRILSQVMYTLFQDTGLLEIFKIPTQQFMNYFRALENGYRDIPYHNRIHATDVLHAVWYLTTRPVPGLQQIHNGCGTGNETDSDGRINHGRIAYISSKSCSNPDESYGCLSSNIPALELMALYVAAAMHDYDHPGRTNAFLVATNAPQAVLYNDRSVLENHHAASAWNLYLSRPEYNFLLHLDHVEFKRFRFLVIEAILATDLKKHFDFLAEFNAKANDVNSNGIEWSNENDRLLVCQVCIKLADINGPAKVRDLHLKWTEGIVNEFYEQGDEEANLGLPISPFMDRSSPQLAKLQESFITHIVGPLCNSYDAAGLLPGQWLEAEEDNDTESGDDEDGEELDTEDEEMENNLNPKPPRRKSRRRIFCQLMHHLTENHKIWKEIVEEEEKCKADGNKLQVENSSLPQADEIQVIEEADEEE
Sequence of PDE11 (Q9HCR9 445-933, change not shown): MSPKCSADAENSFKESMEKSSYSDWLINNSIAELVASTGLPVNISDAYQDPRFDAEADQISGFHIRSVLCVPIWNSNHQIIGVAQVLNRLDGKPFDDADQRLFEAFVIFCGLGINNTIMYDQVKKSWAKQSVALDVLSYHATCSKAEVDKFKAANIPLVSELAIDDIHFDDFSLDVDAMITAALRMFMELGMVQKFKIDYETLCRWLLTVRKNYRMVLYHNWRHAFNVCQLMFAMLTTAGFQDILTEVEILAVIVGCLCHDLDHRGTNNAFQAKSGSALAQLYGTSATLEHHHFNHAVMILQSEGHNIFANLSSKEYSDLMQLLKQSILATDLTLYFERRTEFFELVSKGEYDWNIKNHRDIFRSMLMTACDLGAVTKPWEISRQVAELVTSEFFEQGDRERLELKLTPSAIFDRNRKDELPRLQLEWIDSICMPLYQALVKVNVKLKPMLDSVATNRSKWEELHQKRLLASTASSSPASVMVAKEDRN
Sequence of PDE7B (Q9NP56 whole entry): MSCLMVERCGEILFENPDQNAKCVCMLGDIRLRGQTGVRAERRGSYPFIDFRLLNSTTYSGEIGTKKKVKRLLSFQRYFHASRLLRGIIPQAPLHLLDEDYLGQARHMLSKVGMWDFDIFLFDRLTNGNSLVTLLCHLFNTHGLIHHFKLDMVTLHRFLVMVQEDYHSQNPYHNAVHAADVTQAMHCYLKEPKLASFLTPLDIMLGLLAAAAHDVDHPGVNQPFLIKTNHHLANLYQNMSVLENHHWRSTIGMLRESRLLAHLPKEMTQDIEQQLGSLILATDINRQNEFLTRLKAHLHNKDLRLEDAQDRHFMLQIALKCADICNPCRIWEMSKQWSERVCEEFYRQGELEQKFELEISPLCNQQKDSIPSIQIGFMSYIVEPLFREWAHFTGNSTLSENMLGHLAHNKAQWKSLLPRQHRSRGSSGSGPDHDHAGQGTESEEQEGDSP
Sequence of PDE4B (Q07343 other isoform, or with tags, fused parts or gaps isoform Q07343-2): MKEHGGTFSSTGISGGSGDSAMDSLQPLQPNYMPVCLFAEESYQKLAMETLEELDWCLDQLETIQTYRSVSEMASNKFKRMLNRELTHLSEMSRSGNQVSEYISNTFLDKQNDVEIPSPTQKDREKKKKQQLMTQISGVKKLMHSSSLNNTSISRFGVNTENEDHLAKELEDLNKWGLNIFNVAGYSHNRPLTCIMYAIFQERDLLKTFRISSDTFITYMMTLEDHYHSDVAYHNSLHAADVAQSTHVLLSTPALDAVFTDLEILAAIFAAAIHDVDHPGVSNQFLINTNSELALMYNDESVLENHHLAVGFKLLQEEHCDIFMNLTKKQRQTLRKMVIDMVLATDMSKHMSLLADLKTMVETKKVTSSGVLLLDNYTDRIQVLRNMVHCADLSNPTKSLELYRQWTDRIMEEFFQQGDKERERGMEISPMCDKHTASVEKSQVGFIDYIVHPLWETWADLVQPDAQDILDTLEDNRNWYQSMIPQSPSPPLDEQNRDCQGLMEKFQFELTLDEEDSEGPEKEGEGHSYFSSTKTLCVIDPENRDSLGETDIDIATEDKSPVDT
Sequence of PDE2A (O00408 whole entry): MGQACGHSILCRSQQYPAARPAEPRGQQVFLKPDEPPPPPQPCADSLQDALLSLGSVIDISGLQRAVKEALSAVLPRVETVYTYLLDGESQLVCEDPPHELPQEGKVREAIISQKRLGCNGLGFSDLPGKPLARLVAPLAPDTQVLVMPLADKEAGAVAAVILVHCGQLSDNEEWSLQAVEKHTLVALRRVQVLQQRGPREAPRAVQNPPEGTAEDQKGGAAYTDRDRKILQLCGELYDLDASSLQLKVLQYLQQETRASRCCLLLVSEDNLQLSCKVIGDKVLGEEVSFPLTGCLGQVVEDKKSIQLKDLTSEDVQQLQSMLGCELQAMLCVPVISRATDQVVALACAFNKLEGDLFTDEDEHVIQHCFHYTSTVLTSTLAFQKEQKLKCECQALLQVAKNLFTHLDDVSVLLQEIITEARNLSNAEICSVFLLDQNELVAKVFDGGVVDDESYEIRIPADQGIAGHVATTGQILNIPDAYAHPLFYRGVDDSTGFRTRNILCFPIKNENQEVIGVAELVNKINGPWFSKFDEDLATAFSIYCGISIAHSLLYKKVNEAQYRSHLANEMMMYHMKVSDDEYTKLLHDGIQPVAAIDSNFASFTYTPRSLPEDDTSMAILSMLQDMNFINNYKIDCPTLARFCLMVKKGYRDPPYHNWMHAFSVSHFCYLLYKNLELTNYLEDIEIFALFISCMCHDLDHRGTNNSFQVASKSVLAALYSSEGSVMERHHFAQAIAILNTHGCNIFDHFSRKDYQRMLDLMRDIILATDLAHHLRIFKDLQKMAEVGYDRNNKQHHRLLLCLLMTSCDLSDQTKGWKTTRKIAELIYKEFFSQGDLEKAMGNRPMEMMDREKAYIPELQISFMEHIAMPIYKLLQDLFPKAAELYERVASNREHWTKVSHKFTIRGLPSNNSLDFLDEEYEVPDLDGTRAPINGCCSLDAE
Sequence of PDE8A (O60658 whole entry, looked up): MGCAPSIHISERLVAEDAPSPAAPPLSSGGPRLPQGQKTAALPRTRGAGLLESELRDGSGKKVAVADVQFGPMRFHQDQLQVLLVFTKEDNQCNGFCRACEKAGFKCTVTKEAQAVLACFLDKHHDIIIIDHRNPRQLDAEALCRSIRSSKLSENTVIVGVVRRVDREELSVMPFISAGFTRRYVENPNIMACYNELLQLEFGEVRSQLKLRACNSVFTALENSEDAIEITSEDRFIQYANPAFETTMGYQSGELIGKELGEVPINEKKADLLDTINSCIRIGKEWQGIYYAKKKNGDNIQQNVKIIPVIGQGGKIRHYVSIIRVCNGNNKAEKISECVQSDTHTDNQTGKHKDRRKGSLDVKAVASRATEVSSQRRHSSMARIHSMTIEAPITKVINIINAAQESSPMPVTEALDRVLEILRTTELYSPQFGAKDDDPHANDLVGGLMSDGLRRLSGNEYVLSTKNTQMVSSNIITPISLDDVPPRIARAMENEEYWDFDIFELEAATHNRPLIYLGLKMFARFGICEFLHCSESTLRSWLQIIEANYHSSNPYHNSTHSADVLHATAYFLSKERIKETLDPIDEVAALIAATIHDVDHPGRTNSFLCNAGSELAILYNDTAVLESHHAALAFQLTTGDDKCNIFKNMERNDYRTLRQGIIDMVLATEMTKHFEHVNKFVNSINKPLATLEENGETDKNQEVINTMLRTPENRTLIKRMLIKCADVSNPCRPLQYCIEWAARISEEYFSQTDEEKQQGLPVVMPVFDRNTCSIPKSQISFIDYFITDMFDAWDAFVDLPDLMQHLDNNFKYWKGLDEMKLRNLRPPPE

For `COc1ccc(C2CNC(=O)C2)cc1OC1CCCC1` (stereo not shown) [rolipram], which “inhibition on the isolated enzyme” value (Human PDE9A) is on record?
The value was “no inhibition”.

Which “inhibition on the isolated enzyme” value (Human PDE9A) does the source give for `CCOC(=O)C1=C[C@]2(CC)CCCN3CCc4c(n1c1ccccc41)[C@@H]32` [vinpocetine] here?
The value was “no inhibition”.

Which “inhibition on the isolated enzyme” value (Human PDE9A) does the source give for `CC(=O)Nc1ccc(-c2c[nH]c(=O)cn2)cc1` [SKF94120] here?
Its value is “no inhibition”.

With `O=c1[nH]c(CC2CCCCC2)nc2c1cnn2C1CCCC1` as the molecule, how does the melting point read?
Its melting point is 147 °C.

With `CCC(CC)n1ncc2c(=O)[nH]c(CC3CCCCC3)nc21` [Example 2, 6-(Cyclohexylmethyl)-1-(1-ethylpropyl)-1,5-dihydro-4H-pyrazolo[3,4-d]-pyrimidin-4-one] as the molecule, how does the pIC50 (PDE10A) read?
Its pIC50 is less than 5.40.

What about the “cGMP content of primary neurons” value [1] of the same molecule?
The value was “increase in the cGMP content”.

And the pIC50 (PDE3B)?
Its pIC50 is less than 5.40.

And the “LTP / potentiation of fEPSP after weak tetanus” value [2]?
The value was “significant increase in the LTP; also recorded: significantly augmented the increase in the fEPSP”.

What about the pIC50 (PDE5A) of the same molecule?
The pIC50 was less than 5.40.

And the “social interaction time in trial 2 compared with vehicle” value [3]?
The value was “significantly reduced”.

And the pIC50 (PDE2A)?
Its pIC50 is less than 5.40.

And the pIC50 (PDE4B)?
The pIC50 was less than 5.40.

And the pIC50 (PDE8A)?
The pIC50 was less than 5.40.

What about the pIC50 (PDE7B) of the same molecule?
The pIC50 was less than 5.40.

What about the pIC50 (PDE11) of the same molecule?
The pIC50 was less than 5.40.

What about the melting point of the same molecule?
Its melting point is 122 °C.

For `CC(C)Cn1c(=O)n(C)c(=O)c2[nH]cnc21` [IBMX], which “inhibition of murine PDE9A” value (Murine PDE9A) is on record?
Its value is “not inhibited”.

And the “inhibition on the isolated enzyme” value (Human PDE9A)?
The value was “no inhibition”.

With `OCCN(CCO)c1nc(N2CCCCC2)c2nc(N(CCO)CCO)nc(N3CCCCC3)c2n1` [dipyridamole] as the molecule, how does the “inhibition on the isolated enzyme” value (Human PDE9A) read?
Its value is “no inhibition”.
